# Like-named read-outs stand apart in the source and are kept apart here.
# How the values were obtained:
# HIV-1 (H9/IIIB strain) = test: Viking assay: antiviral potency in a multiple round HIV-1 infection assay in MT4-GFP cells; type: cell-based; details: MT4-GFP cells infected with HIV-1 H9/IIIB, inhibition of reproductive ratio R0
# Protocol: Assessing Antiviral Potency in a Multiple Round HIV-1 Infection Assay (Viking Assay)
# The antiviral activity of the tenofovir prodrugs of the Examples herein was assessed in an assay that measures the rate of replication of HIV in cell culture, termed the Viking assay (VIral KINetics in Green cells) and performed as follows. HIV-1 replication was monitored using MT4-gag-GFP clone D3 (hereafter designated MT4-GFP), which are MT-4 cells modified to harbor a GFP reporter gene, the expression of which is dependent on the HIV-1 expressed proteins tat and rev. Productive infection of an MT4-GFP cell with HIV-1 results in GFP expression approximately 24 h post-infection. MT4-GFP cells were maintained at 37° C./5% CO2/90% relative humidity in RPMI 1640 supplemented with 10% fetal bovine serum, 100 U/ml penicillin/streptomycin, and 400 μg/ml G418 to maintain the reporter gene. For infections, MT4-GFP cells were placed in the same medium lacking G418 and infected overnight with HIV-1 (H9/IIIB strain) virus at an approximate multiplicity of infection of 0.01 in the same incubation conditions. Cells were then washed and re-suspended in either RPMI 1640 supplemented with 10% or 50% normal human serum (NHS) at 1.6×10^5 cells/mL (10% NHS or 50% NHS, respectively). Compound plates were prepared by dispensing compounds dissolved in DMSO into wells of 384 well poly-D-lysine-coated plates (0.2 μl/well) using an ECHO acoustic dispenser. Each compound was tested in a 10-point serial 3-fold dilution (typical final concentrations: 8.4 μM-0.42 nM). Controls included no inhibitor (DMSO only) and a combination of three antiviral agents (efavirenz, indinavir, an in-house integrase strand transfer inhibitor at final concentrations of 4 μM each). Cells were added (50 μL/well) to compound plates and the infected cells were maintained at 37° C./5% CO2/90% relative humidity.
# Infected cells were quantified at two time points, ˜48 h and ˜72 h post-infection, by counting the number of green cells in each well using an Acumen eX3 scanner. The increase in the number of green cells over ˜24 h period gives the reproductive ratio, R0, which is typically 5-15 and has been shown experimentally to be in logarithmic phase (data not shown). Inhibition of R0 is calculated for each well, and IC50s determined by non-linear 4-parameter curve fitting.
# [1] = Prodrug stability assay in bio-relevant media (FaSSIF with Pancreatin, GI tract stability); type: in vitro ADME; details: HPLC peak area of prodrug at 5 h / 0 h, 0.5 mg/mL Pancreatin in FaSSIF, 37° C.
# Protocol: Prodrug Stability Assay in Bio-Relevant Media
# The following assay was employed to evaluate the stability of the prodrugs in simulated gastrointestinal tract conditions. Preparation of fasted state simulated intestinal fluid (FaSSIF) using Phares SIF Powder was carried out according to protocols from Phare Drug Delivery AG (Baselland, Switzerland). For sample preparation, 10 μL stock solutions (10 mM) of prodrug substance in DMSO was added to 990 μL of 0.5 mg/mL Pancreatin solution (Fisher CAS#8049-47-6) in FaSSIF. Two samples were prepared for each compound. If the sample was a clear solution, it was directly analyzed by HPLC. If the sample was not clear, the sample was […] at 37° C. and observed 5 h later. If the sample was clear, HPLC analysis was directly performed. If the sample was still not clear, the sample was diluted with 100% ACN and assayed by HPLC. All the samples were vortexed for 3 min and observed before injection. For the diluted samples, the area is multiplied by a dilution factor when the data is analyzed. The analysis was carried out with an Agilent 1100 series HPLC with autosampler. The column was a Poroshell 120 EC-C18, 4.6×50 mm, […]. The flow rate was 1.8 mL/min, and the injection volume was 5 or 10 μL. UV detection was in the range 210-400 nm. The mobile phase consisted of solvent A (water plus 10 mM tetrabutylammonium bromide) and solvent B (acetonitrile) with a gradient of: 90% solvent A at 0 min, changing to 95% solvent B over 6 min, maintaining for 1.5 min, then reverting to 90% solvent A over 1.6 min. The HPLC peak area of the prodrug at 5 h was divided by the HPLC peak area of the prodrug at 0 h, to generate the % claimed parent ratio, which is summarized in Table 2 for gastrointestinal (GI) Tract stability.
# [2] = Human immunodeficiency virus 1, IIIB, 10% normal human serum, read-out: Viking, IC50 (10% NHS)
# [3] = Human immunodeficiency virus 1, IIIB, 50% normal human serum, read-out: Viking, IC50 (50% NHS)
GI Tract stability [1] [%],Compound,IC50 (HIV-1 (H9/IIIB strain); [2]) [µM],IC50 (HIV-1 (H9/IIIB strain); [3]) [µM],also measured
–,"CC(C)=NOP(=O)(CO[C@H](C)Cn1cnc2c(N)ncnc21)N[C@@H](C)C(=O)OCc1ccccc1 (stereo partly drawn) [Example 5, benzyl (((R)-(((R)-1-(6-amino-9H-purin-9-yl)propan-2-yl)oxy)methyl)((propan-2-ylideneamino)oxy)phosphoryl)-L-alaninate; and benzyl (((S)-(((R)-1-(6-amino-9H-purin-9-yl)propan-2-yl)oxy)methyl)((propan-2-ylideneamino)oxy)phosphoryl)-L-alaninate]",0.0213,0.115,"IC50 (HIV-1 (H9/IIIB strain); 10% normal human serum, read-out: Viking, IC50 (10% NHS)): 0.0152 µM; IC50 (HIV-1 (H9/IIIB strain); 50% normal human serum, read-out: Viking, IC50 (50% NHS)): 0.067 µM"
–,"CCC(CC)=NOP(=O)(CO[C@H](C)Cn1cnc2c(N)ncnc21)N[C@@H](C)C(=O)OC(C)C (stereo partly drawn) [Example 7, isopropyl (((((R)-1-(6-amino-9H-purin-9-yl)propan-2-yl)oxy)methyl)((pentan-3-ylideneamino)oxy)phosphoryl)-L-alaninate]",0.0282,0.0847,–
–,"C/C(=N\OP(=O)(CO[C@H](C)Cn1cnc2c(N)ncnc21)N[C@@H](C)C(=O)OC(C)C)c1ccncc1 (stereo partly drawn) [Example 16, isopropyl (((R)-(((R)-1-(6-amino-9H-purin-9-yl)propan-2-yl)oxy)methyl)((((E)-1-(pyridin-4-yl)ethylidene)amino)oxy)phosphoryl)-L-alaninate and isopropyl; and (((S)-(((R)-1-(6-amino-9H-purin-9-yl)propan-2-yl)oxy)methyl)((((E)-1-(pyridin-4-yl)ethylidene)amino)oxy)phosphoryl)-L-alaninate]",0.78,1.14,–
98.1,"CC(C)=NOP(=O)(CO[C@H](C)Cn1cnc2c(N)ncnc21)NC(C)(C)C(=O)OC(C)C (stereo partly drawn) [Example 22, isopropyl 2-(((R)-((((R)-1-(6-amino-9H-purin-9-yl)propan-2-yl)oxy)methyl)((propan-2-ylideneamino)oxy)phosphoryl)amino)-2-methylpropanoate; and isopropyl 2-(((S)-((((R)-1-(6-amino-9H-purin-9-yl)propan-2-yl)oxy)methyl)((propan-2-ylideneamino)oxy)phosphonyl)amino)-2-methylpropanoate]",–,–,–
95.7,"CC(C)OC(=O)[C@H](C)NP(=O)(CO[C@H](C)Cn1cnc2c(N)ncnc21)ON=C1CCCC1 (stereo partly drawn) [Example 13, isopropyl (((R)-(((R)-1-(6-amino-9H-purin-9-yl)propan-2-yl)oxy)methyl)((cyclopentylidene-amino)oxy)phosphoryl)-L-alaninate; and isopropyl (((S)-(((R)-1-(6-amino-9H-purin-9-yl)propan-2-yl)oxy)methyl)((cyclopentylidene-amino)oxy)phosphoryl)-L-alaninate]",–,–,–
33.4,"C/C(=N\OP(=O)(CO[C@H](C)Cn1cnc2c(N)ncnc21)N[C@@H](C)C(=O)OC(C)C)C1CCCCC1 (stereo partly drawn) [Example 15, isopropyl (((R)-(((R)-1-(6-amino-9H-purin-9-yl)propan-2-yl)oxy)methyl)((((E)-1-cyclohexylethylidene)amino)oxy)phosphoryl)-L-alaninate; and isopropyl (((S)-(((R)-1-(6-amino-9H-purin-9-yl)propan-2-yl)oxy)methyl)((((E)-1-cyclohexylethylidene)amino)oxy)phosphoryl)-L-alaninate]",–,–,–
–,"CC(C)OC(=O)[C@H](C)NP(=O)(CO[C@H](C)Cn1cnc2c(N)ncnc21)ON=C(c1ccccc1)c1ccccc1 (stereo partly drawn) [Example 14, isopropyl (((((R)-1-(6-amino-9H-purin-9-yl)propan-2-yl)oxy)methyl)(((diphenylmethylene)amino)oxy)phosphoryl)-L-alaninate]",0.0186,0.169,–
79.5,"C/C(=N\OP(=O)(CO[C@H](C)Cn1cnc2c(N)ncnc21)N[C@@H](C)C(=O)OC(C)C)C1CCCC1 (stereo partly drawn) [Example 21, isopropyl (((R)-(((R)-1-(6-amino-9H-purin-9-yl)propan-2-yl)oxy)methyl)((((E)-1-cyclopentylethylidene)amino)oxy)phosphoryl)-L-alaninate; and isopropyl (((S)-(((R)-1-(6-amino-9H-purin-9-yl)propan-2-yl)oxy)methyl)((((E)-1-cyclopentylethylidene)amino)oxy)phosphonyl)-L-alaninate]",–,–,–
17.6,"CC(C)CC(CC(C)C)=NOP(=O)(CO[C@H](C)Cn1cnc2c(N)ncnc21)N[C@@H](C)C(=O)OC(C)C (stereo partly drawn) [Example 12, isopropyl (((R)-(((R)-1-(6-amino-9H-purin-9-yl)propan-2-yl)oxy)methyl)(((2,6-dimethylheptan-4-ylidene)amino)oxy)phosphoryl)-L-alaninate; and isopropyl (((S)-(((R)-1-(6-amino-9H-purin-9-yl)propan-2-yl)oxy)methyl)(((2,6-dimethylheptan-4-ylidene)amino)oxy)phosphoryl)-L-alaninate]",–,–,–
–,"CC(C)OC(=O)[C@H](C)NP(=O)(CO[C@H](C)Cn1cnc2c(N)ncnc21)ON=C(C1CCCC1)C1CCCC1 (stereo partly drawn) [Example 6, isopropyl (((((R)-1-(6-amino-9H-purin-9-yl)propan-2-yl)oxy)methyl)(((dicyclopentylmethyl-ene)amino)oxy)phosphoryl)-L-alaninate]",0.0243,0.0513,–
–,"CC(C)OC(=O)[C@H](C)NP(=O)(CO[C@H](C)Cn1cnc2c(N)ncnc21)ON=C1CCN(Cc2ccccc2)CC1 (stereo partly drawn) [Example 11, isopropyl (((((R)-1-(6-amino-9H-purin-9-yl)propan-2-yl)oxy)methyl)(((1-benzylpiperidin-4-ylidene)amino)oxy)phosphoryl)-L-alaninate]",0.0148,0.0517,–
–,"CC(C)OC(=O)[C@H](C)NP(=O)(CO[C@H](C)Cn1cnc2c(N)ncnc21)ON=C1CCOCC1 (stereo partly drawn) [Example 9, isopropyl (((((R)-1-(6-amino-9H-purin-9-yl)propan-2-yl)oxy)methyl)(((tetrahydro-4H-pyran-4-ylidene)amino)oxy)phosphoryl)-L-alaninate]",0.165,0.36,–
–,"CC(C)OC(=O)[C@H](C)NP(=O)(CO[C@H](C)Cn1cnc2c(N)ncnc21)ON=C1CCCCC1 (stereo partly drawn) [Example 8, isopropyl (((((R)-1-(6-amino-9H-purin-9-yl)propan-2-yl)oxy)methyl)((cyclohexylideneamino)oxy)phosphoryl)-L-alaninate]",0.0677,0.0921,–

Compound,GI Tract stability [1] [%],IC50 (HIV-1 (H9/IIIB strain); [2]) [µM],IC50 (HIV-1 (H9/IIIB strain); [3]) [µM],also measured
butyl 2-(((R)-((((R)-1-(6-amino-9H- purin-9-yl)propan-2- yl)oxy)methyl)((propan-2- ylideneamino)oxy)phosphoryl)amino)- 2-methylpropanoate; and butyl 2-(((S)-((((R)-1-(6-amino-9H- purin-9-yl)propan-2- yl)oxy)methyl)((propan-2- ylideneamino)oxy)phosphoryl)amino)- 2-methylpropanoate [Example 23],99.0,–,–,–

# From US10450335B2, “Antiviral oxime phosphoramide compounds” (Merck Sharp & Dohme Corp., priority 2015, dated 2019)
